| SMILES | melting point [°C] |
| --- | --- |
| COc1cc(-c2nc(CCl)cs2)ccc1O | 86 to 88 |
| COc1cc(C=CC(=O)O)ccc1OCC#N | 164 to 166 |
| O=C(O)c1cc(S(=O)(=O)N2CCCCC2)ccc1N1CCOCC1 | 173 to 175 |
| CCS(=O)(=O)NCCC(=O)O | 63 to 65 |
| N#Cc1ccc(NC(=O)NC(CCC(=O)O)C(=O)O)cc1 (configuration not stated) | 169 to 171 |
| NS(=O)(=O)c1c[nH]cn1 | 232 to 234 |
| Nc1nc(-c2ccc(Cl)s2)cs1 | 98 to 100 |
| CC(C)CC1(C)NC(=O)NC1=O (configuration not stated) | 145 to 147 |
| Cc1cc(N)nc(S)n1 | 295 to 297 |
| Cc1c(CCC(=O)O)cnn1C | 139 to 141 |
| Cc1ccc(-c2nc(N)sc2C)s1 | 127 to 129 |
| Cn1ccnc1C(O)C(F)(F)F (configuration not stated) | 135 to 137 |
| Nc1cc(CCCc2cccs2)no1 | 43 to 45 |
| C#CCOc1cccc(C#N)c1 | 61 to 63 |
| COC(=O)C(Cc1c[nH]cn1)NC(C)=O (configuration not stated) | 116 to 118 |
| COC(=O)c1coc(C(=O)CCl)c1 | 97 to 99 |
| CCN(CC)S(=O)(=O)c1cc(C(=O)O)ccc1OC | 182 to 184 |

| SMILES | melting point [°C] |
| --- | --- |
| O=C(O)C1(c2ccc(Cl)cc2)CCOCC1 | 181 to 183 |
| NC(=O)c1cc(F)ccc1Br | 152 to 154 |
| NC(=S)Nc1ccc(OC(F)(F)F)cc1 | 136 to 138 |
| CSc1ccc(-c2nc(=N)s[nH]2)cc1 | 189 to 191 |
| NC(=O)N1CCc2cc(S(=O)(=O)F)ccc21 | 218 to 220 |
| CCCS(=O)(=O)N1CCCC(C(=O)O)C1 (configuration not stated) | 122 to 124 |
| COCCCNc1c(N)n(CC(C)C)c(=O)[nH]c1=O | 179 to 181 |
| N#CCN1CCOCC1 | 62 to 64 |
| O=C(O)C1CCCN1S(=O)(=O)c1ccc(Cl)s1 (configuration not stated) | 44 to 46 |
| COc1ccc(S(=O)(=O)N2CCCCCC2)cc1NC(=O)CCl | 105 to 107 |
| O=C(CCl)N(C1CCCC1)C1CCS(=O)(=O)C1 (configuration not stated) | < 17 |
| CCC(CO)NC(=O)c1ccc(N)cc1 (configuration not stated) | 153 to 155 |
| CN(C)C(=O)Sc1cccc(CCl)c1 | 44 to 46 |
| CC(=O)c1c(C)nc2sccn12 | 132 to 134 |
| NC(=O)c1ccc(S(N)(=O)=O)s1 | 214 to 216 |
| CC(C)S(=O)(=O)Nc1cccc(O)c1 | 123 to 125 |
| CCS(=O)(=O)NCCc1ccc(S(N)(=O)=O)s1 | 121 to 123 |

Now from value to molecule:

| melting point [°C] | SMILES |
| --- | --- |
| 140 to 142 | CC(C)C(NC(=O)Nc1ccccc1)C(=O)O (configuration not stated) |
| 80 to 82 | CC(=O)CCCOc1ccccc1C(N)=O |
| 59 to 61 | O=Cc1ccc(Oc2cccc([N+](=O)[O-])c2)cc1 |
| 239 to 241 | O=C(Nc1cn[nH]c1)c1ccncc1 |
| 267 to 269 | Cc1[nH]c2ncnn2c(=O)c1CCO |
| 188 to 190 | O=C(O)CC(n1cnc2sccc2c1=O)C(F)(F)F (configuration not stated) |
| 124 to 126 | O=C1OCc2c1cccc2S(=O)(=O)Cl |
| 211 to 213 | Nc1c(-c2ccncc2)nc2ccccn12 |
| 241 to 243 | Cc1ccc(-c2nnc(Cl)c3ccccc23)cc1C |
| 195 to 197 | COc1ccccc1-c1c[nH]cc1C(=O)O |
| 279 to 281 | O=c1[nH]cnc2c1nnn2-c1ccccc1 |
| 162 to 164 | Nc1ccc(S(=O)(=O)Nc2ccc(F)cc2F)cc1 |
| 39 to 41 | N#Cc1cccc(Oc2ccc(N)cc2)c1 |
| 80 to 82 | O=C(CO)N1CCCc2ccccc21 |
| 137 to 139 | NC(=O)NCCCc1ccccc1 |
| 229 to 231 | O=C(O)c1ccc(CN2C(=O)CCC2=O)cc1 |
| 122 to 124 | Brc1cnc(NCc2ccncc2)nc1 |
| 90 to 92 | NC(=S)C1CN(Cc2ccccc2)CCO1 (configuration not stated) |
| 119 to 121 | NC(=O)C1CCNc2ccccc21 (configuration not stated) |
| 110 to 112 | O=C(CCl)NCc1cnn(-c2ccccc2)c1 |
| 134 to 136 | Cc1nn(-c2ccccc2)c(C)c1NC(=O)C(C)Cl (configuration not stated) |
| 61 to 63 | Cn1nc(-c2ccccc2)c(C=O)c1Cl |
| 86 to 89 | CS(=O)(=O)c1nc2ccccc2s1 |

From a melting point compilation (Tetko et al.)
